Assay results: article PMC4340763 (Journal of immunology (Baltimore, Md. : 1950), 2015)
Peptide text beside a SMILES is read from it.

Molecular target: soluble HLA-A*0201 molecules (Homo sapiens, UniProt P04439, D140Y/D185E/D98H/E176V/E277Q/G131W/G231S/I119V/I121R/I166T/I218V/L300P/L318F/N151K/N90K/P208A/P217A/Q86G/Q94H/R138H/R169H/T345S)
Experiment: Binding affinity of synthetic peptides to soluble HLA-A*0201 molecules

Row | Molecule | IC50 | Kd | binding affinity to soluble HLA-A*0201 molecules (in words) (soluble HLA-A*0201 molecules)
1 | CC(C)C[C@H](NC(=O)[C@H](CC(C)C)NC(=O)[C@H](CCC(=O)O)NC(=O)[C@H](CC(N)=O)NC(=O)[C@H](CC(C)C)NC(=O)[C@@H](N)CCCNC(=N)N)C(=O)N[C@@H](C)C(=O)N[C@@H](Cc1ccc(O)cc1)C(=O)N[C@H](C(=O)O)C(C)C [VP11/12_220–228] (H-RLNELLAYV-OH) | 709 nM | 709 nM | –
2 | CC(C)C[C@H](NC(=O)[C@@H](N)Cc1ccccc1)C(=O)N[C@H](C(=O)N[C@@H](CS)C(=O)N[C@H](C(=O)N[C@@H](CC(=O)O)C(=O)N[C@@H](CCCNC(=N)N)C(=O)N[C@@H](CO)C(=O)N[C@H](C(=O)O)C(C)C)[C@@H](C)O)[C@@H](C)O [VP11/12_66–74] (H-FLTCTDRSV-OH) | 83 nM | 81 nM | –
3 | CC[C@H](C)[C@H](NC(=O)[C@@H](N)CCCNC(=N)N)C(=O)N[C@@H](CCC(N)=O)C(=O)N[C@@H](CCC(N)=O)C(=O)N[C@@H](Cc1ccc(O)cc1)C(=O)N[C@@H](CCSC)C(=O)N[C@@H](Cc1ccccc1)C(=O)N[C@@H](Cc1ccccc1)C(=O)N[C@@H](CCSC)C(=O)O [VP11/12_197–205] (H-RIQQYMFFM-OH) | 81 nM | 83 nM | –
4 | CSCC[C@H](N)C(=O)N[C@@H](CC(C)C)C(=O)N[C@@H](Cc1c[nH]c2ccccc12)C(=O)N[C@H](C(=O)N[C@H](C(=O)N[C@@H](CC(=O)O)C(=O)N[C@@H](CCCCN)C(=O)N[C@@H](Cc1c[nH]cn1)C(=O)N[C@H](C(=O)O)C(C)C)[C@@H](C)O)[C@@H](C)O [VP11/12_238–246] (H-MLWTTDKHV-OH) | 1290 nM | – | –
5 | ILTQYWKYL [VP11/12_127–135] | – | – | did not bind
6 | CC(C)C[C@H](NC(=O)[C@H](CCCCN)NC(=O)[C@@H](NC(=O)[C@H](CC(C)C)NC(=O)[C@H](CC(C)C)NC(=O)[C@H](C)NC(=O)[C@H](CO)NC(=O)[C@H](CC(C)C)NC(=O)[C@H](C)N)[C@@H](C)O)C(=O)O [VP11/12_702–710] (H-ALSALLTKL-OH) | 313 nM | 313 nM | –
